From ChEMBL document CHEMBL4602719, “Discovery of Potent, Selective, and Orally Bioavailable Inhibitors of USP7 with In Vivo Antitumor Activity” (J Med Chem, 2020) come the findings set out here.

Series [1] addresses T1, Ubiquitin carboxyl-terminal hydrolase 7 (Homo sapiens, UniProt Q93009). In words: Inhibition of recombinant full length USP7 (unknown origin) using ubiquintin-rhodamine as substrate preincubated for 30 mins followed by substrate addition measured after 1 hr by fluorescence-based Envision plate reader assay.
Series [2] addresses T1, Ubiquitin carboxyl-terminal hydrolase 7. Description: Inhibition of USP7 in human RKO cells transfected with p53 luciferase reporter vector assessed as increase in p53-dependent luciferase activity measured after 18 hrs by BrightGlo luciferase assay. The format is cell-based. On the technique in general: Reporter assays use an easily measured gene product as a stand-in for the process of interest.

Series [3] has as its system MM1.S. Description: Cytotoxicity against human MM1S cells expressing wild type p53 assessed as reduction in cell viability measured after 5 days by CellTiter-Glo assay. As to conditions: 120 h. Format: functional. (In general: Cellular ATP, detected with luciferase, serves as a proxy for viable cell number.)
In series [4] the test system is NCI-H526. In words: Cytotoxicity against human NCI-H526 cells expressing p53 mutant assessed as reduction in cell viability measured after 5 days by CellTiter-Glo assay. Format: functional. The note with it: NCI-H526, 120 h.
For series [5], the target named is Voltage-gated inwardly rectifying potassium channel KCNH2 (Homo sapiens, UniProt Q12809). In words: Inhibition of human ERG.
Sequence of Voltage-gated inwardly rectifying potassium channel KCNH2 (Q12809 whole entry): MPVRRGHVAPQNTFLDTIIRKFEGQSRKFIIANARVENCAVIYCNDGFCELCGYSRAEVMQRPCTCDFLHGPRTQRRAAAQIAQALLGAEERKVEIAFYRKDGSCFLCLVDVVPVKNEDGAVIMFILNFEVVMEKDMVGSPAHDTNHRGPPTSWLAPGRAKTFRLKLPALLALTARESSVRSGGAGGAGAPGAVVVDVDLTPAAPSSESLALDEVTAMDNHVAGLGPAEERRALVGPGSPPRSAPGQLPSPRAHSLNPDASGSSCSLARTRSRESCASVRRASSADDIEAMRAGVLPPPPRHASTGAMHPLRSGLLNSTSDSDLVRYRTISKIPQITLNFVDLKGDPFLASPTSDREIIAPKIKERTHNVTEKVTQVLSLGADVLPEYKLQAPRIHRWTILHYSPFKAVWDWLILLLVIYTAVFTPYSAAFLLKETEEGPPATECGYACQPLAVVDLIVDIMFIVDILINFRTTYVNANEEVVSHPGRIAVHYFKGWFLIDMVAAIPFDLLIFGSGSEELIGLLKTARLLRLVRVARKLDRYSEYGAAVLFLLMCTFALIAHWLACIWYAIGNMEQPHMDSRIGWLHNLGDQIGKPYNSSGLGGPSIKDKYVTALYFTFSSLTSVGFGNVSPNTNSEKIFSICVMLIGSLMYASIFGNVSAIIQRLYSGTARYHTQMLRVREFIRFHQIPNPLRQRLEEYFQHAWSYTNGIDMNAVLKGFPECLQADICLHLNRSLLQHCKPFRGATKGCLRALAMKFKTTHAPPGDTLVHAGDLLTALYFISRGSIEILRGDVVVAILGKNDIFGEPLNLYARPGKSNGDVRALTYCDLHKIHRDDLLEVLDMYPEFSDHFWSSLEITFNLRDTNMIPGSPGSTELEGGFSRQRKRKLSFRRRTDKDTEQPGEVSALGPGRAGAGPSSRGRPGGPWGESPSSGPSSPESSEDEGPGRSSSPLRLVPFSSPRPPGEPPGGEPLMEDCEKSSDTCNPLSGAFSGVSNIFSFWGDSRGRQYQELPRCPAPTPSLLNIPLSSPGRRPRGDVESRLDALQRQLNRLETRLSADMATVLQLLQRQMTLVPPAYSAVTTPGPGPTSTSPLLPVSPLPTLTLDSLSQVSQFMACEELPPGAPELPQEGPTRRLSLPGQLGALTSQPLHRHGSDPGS
For series [6], the system named is MM1.S. In words: Antitumor activity against human MM1S cells xenografted in NOD/SCID mouse assessed as tumor growth inhibition at 50 mg/kg, po administered twice daily and measured twice per week relative to control. Format: functional. As to conditions: read-out: TGI. For orientation: In xenograft studies the graft and the host belong to different species.
The nature of series [7]: Cytotoxicity against human RKO cells assessed as reduction in cellular ATP level measured after 5 days by CellTiter-Glo assay. Format: cell-based.
Series [8] can be described thus: AUC in BALB/c mouse at 30 mg/kg, po. Format: ADME, organism-based. The note with it: in vivo.
A short description of series [9]: AUC in NOD/SCID mouse at 30 mg/kg, po. The format is ADME, organism-based. As to conditions: in vivo.
Series [10] can be described thus: AUC in nude mouse at 30 mg/kg, po. Format: ADME, organism-based. The note with it: in vivo.
A short description of series [11]: Protein binding in mouse plasma by ultracentrifugation method. The format is ADME, cell-free. The note with it: read-out: PPB (converted).
Series [12] can be described thus: Toxicity in NOD/SCID mouse xenografted with human MM1S cells assessed as decrease in body weight at 50 mg/kg, po administered twice daily and measured twice per week relative to control. The format is organism-based. Also noted: scale not given: the % may be the effect or the level left. The note with it: in vivo.
Series [13] deals with NCI-H526. As to conditions: Homo sapiens.
Description: Antitumor activity against human NCI-H526 cells xenografted in athymic nu/nu mouse assessed as tumor growth inhibition at 50 mg/kg, po administered twice daily for 24 days and measured twice per week
Series [14] addresses T2, Ubiquitin carboxyl-terminal hydrolase 1 (Homo sapiens, UniProt O94782).
T2 sequence (O94782 whole entry): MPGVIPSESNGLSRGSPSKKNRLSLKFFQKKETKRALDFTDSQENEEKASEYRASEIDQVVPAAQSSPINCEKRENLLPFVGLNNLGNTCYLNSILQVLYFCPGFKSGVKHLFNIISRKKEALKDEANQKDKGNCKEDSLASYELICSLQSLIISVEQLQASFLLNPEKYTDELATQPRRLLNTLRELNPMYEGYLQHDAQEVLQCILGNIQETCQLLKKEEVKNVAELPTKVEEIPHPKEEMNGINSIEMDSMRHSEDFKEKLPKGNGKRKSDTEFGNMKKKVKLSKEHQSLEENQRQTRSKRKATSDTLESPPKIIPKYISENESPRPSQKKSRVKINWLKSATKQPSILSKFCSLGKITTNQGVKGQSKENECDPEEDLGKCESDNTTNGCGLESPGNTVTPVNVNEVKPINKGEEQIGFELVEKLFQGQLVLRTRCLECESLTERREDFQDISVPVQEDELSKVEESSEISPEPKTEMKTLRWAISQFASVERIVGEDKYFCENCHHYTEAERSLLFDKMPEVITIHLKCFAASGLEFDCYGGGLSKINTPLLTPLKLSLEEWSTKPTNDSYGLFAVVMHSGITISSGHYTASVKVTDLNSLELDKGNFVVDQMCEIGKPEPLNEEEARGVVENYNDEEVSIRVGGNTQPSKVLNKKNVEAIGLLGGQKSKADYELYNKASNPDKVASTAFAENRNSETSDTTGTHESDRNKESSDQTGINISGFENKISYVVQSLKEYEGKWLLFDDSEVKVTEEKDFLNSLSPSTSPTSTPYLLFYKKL
In words: Inhibition of His6-tagged human USP1 expressed in insect Sf21 cells coexpressing untagged UAF1 assessed as cleavage of Ubiquitin-Rhodamine110-glycine to Ubiquitin and Rhodamine110-glycine using Ubiquitin-Rhodamine110-glycine as substrate by fluorescence based analysis.

Series [15] concerns the target T3, Ubiquitin carboxyl-terminal hydrolase 47 (Homo sapiens, UniProt Q96K76).
T3 sequence (Q96K76 whole entry): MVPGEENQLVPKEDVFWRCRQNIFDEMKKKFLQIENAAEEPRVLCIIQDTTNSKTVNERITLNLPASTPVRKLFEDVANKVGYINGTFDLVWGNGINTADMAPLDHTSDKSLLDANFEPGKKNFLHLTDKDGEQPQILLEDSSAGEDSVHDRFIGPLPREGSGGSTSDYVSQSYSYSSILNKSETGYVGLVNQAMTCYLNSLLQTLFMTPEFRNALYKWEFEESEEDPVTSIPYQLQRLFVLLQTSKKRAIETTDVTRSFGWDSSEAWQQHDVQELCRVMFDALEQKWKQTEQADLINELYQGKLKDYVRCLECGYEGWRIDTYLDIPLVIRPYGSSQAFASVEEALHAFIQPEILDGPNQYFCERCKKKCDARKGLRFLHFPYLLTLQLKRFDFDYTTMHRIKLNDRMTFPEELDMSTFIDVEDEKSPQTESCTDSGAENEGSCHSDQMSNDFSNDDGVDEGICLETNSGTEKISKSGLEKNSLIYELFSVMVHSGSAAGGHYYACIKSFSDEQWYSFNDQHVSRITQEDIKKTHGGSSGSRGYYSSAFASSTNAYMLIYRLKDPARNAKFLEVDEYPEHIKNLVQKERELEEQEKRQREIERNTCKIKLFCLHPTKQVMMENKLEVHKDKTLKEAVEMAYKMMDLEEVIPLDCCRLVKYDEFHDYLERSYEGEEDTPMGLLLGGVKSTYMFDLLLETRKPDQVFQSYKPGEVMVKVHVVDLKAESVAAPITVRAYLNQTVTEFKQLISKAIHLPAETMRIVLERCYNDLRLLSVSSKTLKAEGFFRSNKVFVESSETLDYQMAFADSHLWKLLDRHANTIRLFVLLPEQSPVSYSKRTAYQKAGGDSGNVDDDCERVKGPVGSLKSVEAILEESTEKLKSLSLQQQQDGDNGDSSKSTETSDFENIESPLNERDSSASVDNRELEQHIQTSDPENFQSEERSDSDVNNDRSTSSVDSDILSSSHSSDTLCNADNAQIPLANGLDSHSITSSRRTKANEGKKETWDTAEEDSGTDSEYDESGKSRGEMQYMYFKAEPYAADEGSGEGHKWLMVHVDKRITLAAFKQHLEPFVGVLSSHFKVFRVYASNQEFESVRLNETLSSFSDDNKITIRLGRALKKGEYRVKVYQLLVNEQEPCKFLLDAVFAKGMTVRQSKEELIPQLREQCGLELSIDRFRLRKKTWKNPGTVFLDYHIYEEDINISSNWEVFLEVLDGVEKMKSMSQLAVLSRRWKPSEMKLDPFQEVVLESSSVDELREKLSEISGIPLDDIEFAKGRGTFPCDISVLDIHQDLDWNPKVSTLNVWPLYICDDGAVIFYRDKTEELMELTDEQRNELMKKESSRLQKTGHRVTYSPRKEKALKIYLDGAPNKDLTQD
Description: Inhibition of USP47 (unknown origin) by biochemical assay.

The target of series [16] is T4, Ubiquitin carboxyl-terminal hydrolase isozyme L3 (Homo sapiens, UniProt P15374).
T4 sequence (P15374 whole entry): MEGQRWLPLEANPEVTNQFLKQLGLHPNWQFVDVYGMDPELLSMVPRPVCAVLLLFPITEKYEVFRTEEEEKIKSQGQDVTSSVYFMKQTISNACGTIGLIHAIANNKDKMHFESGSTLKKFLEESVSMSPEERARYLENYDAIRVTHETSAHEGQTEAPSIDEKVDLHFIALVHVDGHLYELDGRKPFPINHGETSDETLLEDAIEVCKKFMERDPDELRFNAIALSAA
In words: Inhibition of human GST-tagged UCHL3 expressed in Escherichia coli assessed as cleavage of Ubiquitin-Rhodamine110-glycine to Ubiquitin and Rhodamine110-glycine using Ubiquitin-Rhodamine110-glycine as substrate by fluorescence based analysis.

Molecules are shown by their SMILES. Active and inactive are the calls of the source. The calls are words filed in the database; no cut-off is given here.

T1 sequence (Q93009 whole entry): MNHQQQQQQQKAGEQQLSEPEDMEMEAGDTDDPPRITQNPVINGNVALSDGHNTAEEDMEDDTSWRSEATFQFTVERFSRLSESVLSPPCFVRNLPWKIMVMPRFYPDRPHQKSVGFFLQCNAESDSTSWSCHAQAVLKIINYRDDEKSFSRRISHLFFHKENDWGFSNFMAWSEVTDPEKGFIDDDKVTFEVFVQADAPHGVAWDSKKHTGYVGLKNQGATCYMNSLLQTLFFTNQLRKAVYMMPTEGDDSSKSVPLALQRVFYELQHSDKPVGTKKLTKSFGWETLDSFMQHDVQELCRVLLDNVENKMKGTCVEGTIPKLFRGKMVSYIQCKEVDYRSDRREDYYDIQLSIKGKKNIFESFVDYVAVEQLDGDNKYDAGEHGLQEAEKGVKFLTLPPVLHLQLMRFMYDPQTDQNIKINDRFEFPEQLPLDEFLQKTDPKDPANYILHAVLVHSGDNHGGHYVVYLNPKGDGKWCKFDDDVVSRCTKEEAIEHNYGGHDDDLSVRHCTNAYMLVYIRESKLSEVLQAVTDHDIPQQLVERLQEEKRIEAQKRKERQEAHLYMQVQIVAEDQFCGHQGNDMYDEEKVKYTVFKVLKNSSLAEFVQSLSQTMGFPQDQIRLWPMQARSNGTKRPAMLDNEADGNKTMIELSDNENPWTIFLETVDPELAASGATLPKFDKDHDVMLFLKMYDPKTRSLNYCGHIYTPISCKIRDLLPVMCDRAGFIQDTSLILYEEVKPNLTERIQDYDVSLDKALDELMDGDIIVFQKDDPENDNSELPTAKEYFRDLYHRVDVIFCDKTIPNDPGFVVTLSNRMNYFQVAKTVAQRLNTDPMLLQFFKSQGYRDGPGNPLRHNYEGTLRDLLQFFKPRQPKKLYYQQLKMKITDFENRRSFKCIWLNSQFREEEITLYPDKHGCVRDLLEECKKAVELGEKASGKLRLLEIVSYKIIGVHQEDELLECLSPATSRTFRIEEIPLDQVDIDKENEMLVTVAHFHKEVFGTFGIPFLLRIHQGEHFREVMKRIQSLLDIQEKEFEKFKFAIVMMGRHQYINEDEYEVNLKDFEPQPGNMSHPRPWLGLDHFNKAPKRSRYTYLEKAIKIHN

Take `Cc1cc(Cl)cc(-c2ccnc3cc(CN4C(=O)C5CC5C4=O)sc23)c1C[C@@H]1CNCCO1` (stereo not given in full): the IC50 was found to be 0.16 nM in series [1] and 8000 nM in series [5]. Also, the EC50 in [2] worked out at 35 nM. Besides, the CC50 in series [3] was 210 nM; in series [4] it was 3600 nM.

Take `Cc1cc(Cl)cc(-c2ccnc3cc(CN4C(=O)C5C(C4=O)C5(C)C)sc23)c1C[C@@H]1CNCCO1` (stereo not given in full): the inhibition in vivo at 50 mg/kg in series [6] is 100%. The concentration for half-maximal inhibition (IC50) came to 0.44 nM in [1] and 4200 nM in series [5]. Besides, in series [2], the EC50 turned out to be 25 nM. Besides, the 50% cytotoxic concentration (CC50) in series [3] stood at 89 nM; in [4], 450 nM. In addition, in [7], the CC50 at 120 h is 13000 nM. In addition, the area under the curve (AUC) came out at 9400 ng·h/mL in [8], 5500 ng·h/mL in series [9] and 4600 ng·h/mL in series [10]. Moreover, the fraction unbound in series [11] was 0.047. For the same compound, the Activity in series [12] was less than 90%. For the same compound, the TGI result in series [13] was “Active”.

Turning to `CC(Cc1ccccc1)C(=O)N1CCC(O)(Cn2cnc3ccccc3c2=O)CC1` (stereo not given), the IC50 in series [14], in series [15] and in series [16] was greater than 80000 nM in each case.

Consider `Nc1cc(-c2cc(Cl)cc3c2OC(C(=O)N2CCNCC2)C3)ccn1` (racemic), for which the half-inhibitory concentration (IC50) in series [1] is 5600 nM; in [14] it was greater than 80000 nM; in [15], greater than 80000 nM; in [16] it was greater than 80000 nM.

On to `Cc1cc(Cl)cc(-c2ccnc3cc(CN4C(=O)CCC4=O)sc23)c1CN1[C@@H](C)CNC[C@@H]1C`, for which the IC50 stood at 0.32 nM in [1] and 2700 nM in [5]. In addition, the EC50 in series [2] came to 60 nM. Besides, the 50% cytotoxic concentration (CC50) in [3] was found to be 135 nM; in series [4], 2200 nM.

What is called IC50 is the concentration that inhibits the measured activity by half. The term EC50 denotes the concentration needed to bring the measured effect to its halfway point. Usually CC50 stands for the concentration giving 50% cytotoxicity. The term AUC denotes concentration integrated over time.
